Assay results published in patent US20190054051A1, “DOPA Formulations for Treatments of Parkinson's Disease” (The Board of Trustees of the Leland Stanford Junior …, priority 2017, published 2019).

Tests used:
6-OHDA lesioned mice = test: Cylinder test, contralateral paw usage (akinesia); assay type: in vivo; details: single dose equivalent to 5 mg/Kg DOPA; DOPA = L-DOPA/Benserazide 5 and 10 mg/Kg s/c
hemiparkinsonian mice = test: Abnormal Involuntary Movements (AIMs) after chronic L-DOPA, Example 5; assay type: in vivo; details: daily L-DOPA (mixed with benserazide) injections, post-testing 15 days
Method: Mice were anesthetized with 5% isoflurane (Isothesia, Henry Schein Animal Health, Dublin, Ohio) in 100% oxygen with a delivery rate of 51/minute until loss of righting reflex and mounted on a stereotaxis. The anesthesia was maintained with 1 to 1.5% isoflurane throughout the surgical procedure. Body temperature was maintained using heating pads; respiration was monitored every 10 minutes. Mice were treated with desipramine HCl (25 mg/kg i/p) 30 minutes before the infusion of 6-hydroxydopamine (6-OHDA). […]
Measurement of Abnormal Involuntary Movements (AIMs) were quantified after chronic L-DOPA administration in hemiparkinsonian mice. In the pretesting sessions, mice were given daily injections of L-DOPA/benserazide (5/10 mg/Kg s/c) for 9 days; AIMs were assessed every 20 minutes for 3 hrs after injection every third day of L-DOPA injections. Total duration of contralateral abnormal movements of the tongue-orofacial muscles and forelimb, twisting of the body (dystonia), and locomotor (rotational) behavior were scored, as illustrated in FIG. 6E. […] After five days' rest, in the post-test phase, mice were administered DOPA-benserazide or one of the four ranitidine formulations (Form IA, IB, IIA, or IIB, as defined above) daily for 15 days; AIMs were again assessed every third day.
Western blots were quantified using band densitometry in Image J software (NIH version). […]

SAPK/JNK = test: Western blot of phospho SAPK/JNK and total SAPK/JNK in striatum; assay type: in vivo, mice
Method: After behavioral testing, mice again received their assigned injection and then, 45 minutes later, were decapitated under anesthesia. Tissue samples were processed as follows. Briefly, the brain was dissected, rapidly frozen on dry ice, and stored at −80° C. Striatal tissue was collected from 100 μm coronal slices cut at the level of striatum using a cryostat (Leica CM1950, Leica Biosystems Inc, Buffalo Groove, Ill.). Striatal samples from the intact and the lesioned hemisphere were separately collected in 150p1 of lysis solution (Totally RNA, Ambion, Austin, Tex.). Care was taken to make sure that the tissue samples were collected from similar regions in all the brain samples analyzed, since there are differences in the expression of GRKs from rostral to caudal CPu. […]
Western blots were quantified using band densitometry in Image J software (NIH version). […] Results are represented as group mean±SEM and analyzed using one-way or repeated-measures ANOVA (RM-ANOVA), with post hoc Bonferroni tests. The mouse cylinder test was analyzed with RM-ANOVA, with group (DOPA and DOPA-ranitidine formulations) as a between-group factor and saline vs. DOPA treatment as a within-group factor. AIMs scores were analyzed using the Kruskal Wallis test for pre-testing (DOPA injected animals) and the Mann-Whitney U test for the post-testing sessions (DOPA vs DOPA-ranitidine formulations). […]

animal models of PD = details: previously reported; cited from earlier work

SMILES	contralateral paw usage compared to saline treatment (6-OHDA lesioned mice)	AIMs over the course of daily administration (hemiparkinsonian mice)	phospho JNK level in both the intact and the lesioned hemispheres (SAPK/JNK; no differences between hemispheres)	phosphorylation of p54 versus the ranitidine/DOPA formulation groups (SAPK/JNK; ranitidine alone group)	L-DOPA induced dyskinesia (dyskinetic behavior following DOPA treatment) (animal models of PD)
N[C@@H](Cc1ccc(O)c(O)c1)C(=O)O [L-DOPA, L-3,4-dihydroxyphenylalanine]	significantly increased contralateral paw usage	increasing AIMs	elevated		
CN/C(=C\[N+](=O)[O-])NCCSCc1ccc(CN(C)C)o1 [Ranitidine, N-(2-[(5-[(dimethylamino)methyl]furan-2-yl)methylthio]ethyl)-N′-methyl-2-nitroethene-1,1-diamine]				reduced in both the intact and lesioned hemispheres	suppress LID
